Patent US9505798B2, “Steroid compounds as RORyt modulators and uses thereof” (New York University, priority 2010, dated 2016)

Legend:
Type in all cases: cell-based
[1] = target: T1, DHR3 (Drosophila melanogaster, UniProt P31396); test: S2 cell DHR3 luciferase reporter; conditions: 10 μM, FIG. 1c
T1 construct: Drosophila DHR3 (amino acids 120 to end); expressed in transfected cells
Excerpt: The Drosophila S2 cell line was originally purchased from Invitrogen and was maintained in Schneider's medium supplemented with 10% heat-inactivated bovine fetal calf serum and antibiotics (Invitrogen). Gal4 DNA binding domain (G4 DBD) corresponding to amino acids 1 through 147 of Gal4 protein was PCR amplified to make a fusion construct with mouse RORγt (amino acids 79 to the carboxyl terminal end) lacking its DNA binding domain. The resulting chimeric gene was subcloned into the copper inducible pMT/V5-His A vector (Invitrogen). In a similar manner, Gal4 fusion constructs were prepared with mouse RORα (amino acids 142 to end) or Drosophila DHR3 (amino acids 120 to end). Coding sequences for firefly luciferase (Promega) were PCR amplified and subcloned into pUAST vector containing Gal4 binding enhancer sequences. Renilla luciferase construct under the polIII promoter was obtained from Dr. Dasgupta's laboratory (NYU medical center). In order to generate stable cell lines, cells were co-transfected with pMT-G4 DBD-RORγt, pMT-G4 DBD-RORα, pMT-G4 DBD-DHR3, or pMT-G4 DBDVP16 and pHygro plasmids (Invitrogen) and screened for resistant colonies in the presence of hygromycin (0.3 mg/mL). […]

[2] = target: T2, human androgen receptor (Homo sapiens, UniProt P10275); test: S2 cell human androgen receptor reporter
T2 construct: expressed in transfected cells; host or cells: Drosophila S2 cells, plasmid pMK33-hAR
T2 sequence (P10275 whole entry): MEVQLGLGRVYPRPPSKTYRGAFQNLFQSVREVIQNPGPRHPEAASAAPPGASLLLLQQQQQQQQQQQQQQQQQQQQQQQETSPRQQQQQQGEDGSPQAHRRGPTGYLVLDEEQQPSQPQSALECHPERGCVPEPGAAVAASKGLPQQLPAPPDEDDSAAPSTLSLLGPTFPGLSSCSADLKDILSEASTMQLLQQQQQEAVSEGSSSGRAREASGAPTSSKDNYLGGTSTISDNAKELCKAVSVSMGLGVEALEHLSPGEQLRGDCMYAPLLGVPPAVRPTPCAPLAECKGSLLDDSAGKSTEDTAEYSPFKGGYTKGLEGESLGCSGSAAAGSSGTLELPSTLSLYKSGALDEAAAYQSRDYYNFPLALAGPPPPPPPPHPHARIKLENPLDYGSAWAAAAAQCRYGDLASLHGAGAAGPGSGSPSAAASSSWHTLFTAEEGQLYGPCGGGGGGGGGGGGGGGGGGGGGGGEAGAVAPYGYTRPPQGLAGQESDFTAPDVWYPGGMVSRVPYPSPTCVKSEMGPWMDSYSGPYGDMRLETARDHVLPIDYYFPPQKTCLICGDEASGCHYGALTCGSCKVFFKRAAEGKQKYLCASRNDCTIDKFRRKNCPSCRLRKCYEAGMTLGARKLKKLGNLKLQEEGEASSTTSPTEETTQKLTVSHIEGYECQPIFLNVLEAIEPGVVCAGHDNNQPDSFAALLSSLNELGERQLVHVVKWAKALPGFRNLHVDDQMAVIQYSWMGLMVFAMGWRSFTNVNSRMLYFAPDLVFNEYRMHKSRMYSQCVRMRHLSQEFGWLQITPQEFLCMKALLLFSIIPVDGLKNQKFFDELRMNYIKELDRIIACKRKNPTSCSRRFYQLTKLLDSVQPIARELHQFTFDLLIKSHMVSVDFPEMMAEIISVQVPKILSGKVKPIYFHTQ

[3] = system: pre-differentiated mouse Th17 cells; test: Pre-differentiated mouse Th17 cells from MOG-immunized mice, in vitro; conditions: expanded Th17 cells from immunized mice, 10 μM
Excerpt: Mononuclear cells were collected from draining lymph nodes of wild-type or IL-23RGFP knock-in heterozygous mice 7 days after MOG(35-55)/CFA injection.

T1 sequence (P31396 120-487 limits assumed): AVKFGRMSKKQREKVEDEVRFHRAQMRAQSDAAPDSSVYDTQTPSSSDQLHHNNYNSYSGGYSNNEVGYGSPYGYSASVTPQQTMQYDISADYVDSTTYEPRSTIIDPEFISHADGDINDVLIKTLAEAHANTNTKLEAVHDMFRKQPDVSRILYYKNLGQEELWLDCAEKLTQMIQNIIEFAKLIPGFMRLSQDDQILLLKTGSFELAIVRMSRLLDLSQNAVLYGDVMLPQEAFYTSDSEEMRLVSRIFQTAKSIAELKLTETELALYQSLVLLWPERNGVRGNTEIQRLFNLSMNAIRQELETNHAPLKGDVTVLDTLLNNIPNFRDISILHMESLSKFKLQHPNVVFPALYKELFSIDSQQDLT

What does the source list for C[C@H]1O[C@@H](O[C@H]2[C@@H](O)C[C@H](O[C@H]3[C@@H](O)C[C@H](O[C@H]4CC[C@@]5(C)[C@H](CC[C@@H]6[C@@H]5C[C@@H](O)[C@]5(C)[C@@H](C7=CC(=O)OC7)CC[C@]65O)C4)O[C@@H]3C)O[C@@H]2C)C[C@H](O)[C@@H]1O [Digoxin]?
effect on transcriptional activity of DHR3 [1]: no effect; inhibition of human androgen receptor activity [2]: did not inhibit; IL-23R and IL-17a expression [3]: inhibited both IL-23R (FIG. 4a) and IL-17a (FIG. 4b, bottom) expression without affecting IFN-γ expression
